One assay relates to HeLa S3. In words: Cytotoxicity against human HeLaS3 cells after 96 hrs by MTT assay. It is filed as functional, cell-based. The conditions noted are these: HeLa S3, 96 h. (In general: Tetrazolium assays rely on reduction of a dye to a coloured formazan, in cell work by metabolically active cells.)
Assay [1] is filed under the species Oryctolagus cuniculus. The experiment in a line: Binding affinity to rabbit skeletal muscle actin preincubated for 60 mins followed by UV irradiation for 15 mins in presence of aplyronine A by SDS-PAGE analysis.
Assay [2] can be described thus: Binding affinity to rabbit skeletal muscle actin/pig brain tubulin preincubated for 60 mins followed by UV irradiation for 15 mins in presence of aplyronine A by SDS-PAGE analysis.
The species entered for assay [3] is Oryctolagus cuniculus. In words: Binding affinity to rabbit skeletal muscle actin preincubated for 30 mins followed by UV irradiation of 0.8 mW for 15 mins measured after 30 mins by TAMRA azide-based fluorescence SDS-PAGE analysis.
The species entered for assay [4] is Oryctolagus cuniculus. In words: Inhibition of rabbit skeletal muscle F-actin polymerization at 3 uM after 1 hr by SDS-PAGE assay.
The nature of assay [5]: Binding affinity to rabbit skeletal muscle actin/porcine brain tubulin preincubated for 30 mins followed by UV irradiation of 0.8 mW for 15 mins measured after 30 mins by TAMRA azide-based fluorescence SDS-PAGE analysis.
The species named for the next assay is Sus scrofa. In words: Binding affinity to pig brain tubulin preincubated for 30 mins followed by UV irradiation of 0.8 mW for 15 mins measured after 30 mins by TAMRA azide-based fluorescence SDS-PAGE analysis.

A word on the IC50: it is the midpoint of a concentration-inhibition curve. A lower IC50 goes with higher potency.

The source made the active and inactive calls. No cut-off for these calls is given here.

In the assay with HeLa S3, `COCC(C(=O)O[C@@H]1C/C=C/C=C/C(=O)O[C@H]([C@@H](C)[C@@H](O)[C@@H](C)CC[C@@H](OC(=O)[C@H](C)N(C)C)[C@H](C)[C@H](OC(C)=O)[C@H](C)CC=NOCC(=O)NCCCC[C@H](NC(=O)c2ccc(C3(C(F)(F)F)N=N3)cc2)C(=O)NCCCCCCNC(=O)c2ccc(-c3c4ccc(N(C)C)cc4[o+]c4cc(N(C)C)ccc34)c(C(=O)[O-])c2)C/C=C/[C@H](OC)C[C@H](C)C/C=C(\C)[C@@H](OC)CC[C@@H](C)[C@@H](O)[C@@H]1C)N(C)C` (stereo not given in full) yielded an IC50 of 13 nM. Further, the outcome in the assay filed under Oryctolagus cuniculus [1] was Active. Moreover, the outcome in assay [2] was inactive.
Compound `C#CCNC(=O)[C@H](CCCCNC(=O)CON=CC[C@@H](C)[C@@H](OC(C)=O)[C@@H](C)[C@@H](CC[C@H](C)[C@H](O)[C@H](C)[C@@H]1C/C=C/[C@H](OC)C[C@H](C)C/C=C(\C)[C@@H](OC)CC[C@@H](C)[C@@H](O)[C@H](C)[C@H](OC(=O)C(COC)N(C)C)C/C=C/C=C/C(=O)O1)OC(=O)[C@H](C)N(C)C)NC(=O)c1ccc(C2(C(F)(F)F)N=N2)cc1` (stereo not given in full) came in with an IC50 in the assay on HeLa S3 of 0.76 nM. The outcome in the assay listed under Oryctolagus cuniculus [3] was Active.
`C#CCNC(=O)[C@H](CCCCNC(=O)CON=CC[C@@H](C)[C@@H](OC(C)=O)[C@@H](C)[C@@H](CC[C@H](C)[C@H](O)[C@H](C)[C@@H]1C/C=C/[C@H](OC)C[C@H](C)C/C=C(\C)[C@@H](OC)CC[C@@H](C)[C@@H](O)[C@H](C)[C@H](OC(=O)C(COC)N(C)C)C/C=C/C=C/C(=O)O1)OC(=O)[C@H](C)N(C)C)NC(=O)CCC(=O)NCCCOCCOCCOCCCNC(=O)c1ccc(C2(C(F)(F)F)N=N2)cc1` (stereo not given in full) displayed a half-inhibitory concentration (IC50) in the assay with HeLa S3 of 1.2 nM. The inhibition result in the assay listed under Oryctolagus cuniculus [4] was “Active”. Moreover, the outcome in the assay filed under Oryctolagus cuniculus [3] was Active. The outcome (in assay [5]; in the assay filed under Sus scrofa) was inactive.
With `COCC(C(=O)O[C@@H]1C/C=C/C=C/C(=O)O[C@H]([C@@H](C)[C@@H](O)[C@@H](C)CC[C@@H](OC(=O)[C@H](C)N(C)C)[C@H](C)[C@H](OC(C)=O)[C@H](C)CC=NOCC(=O)NCCCC[C@H](NC(=O)c2ccc(C3(C(F)(F)F)N=N3)cc2)C(=O)NCCCOCCOCCOCCCNC(=O)CCCC[C@@H]2SC[C@@H]3NC(=O)N[C@@H]32)C/C=C/[C@H](OC)C[C@H](C)C/C=C(\C)[C@@H](OC)CC[C@@H](C)[C@@H](O)[C@@H]1C)N(C)C` (stereo not given in full), the IC50 in the assay with HeLa S3 is 1.2 nM.
On to `COCC(C(=O)O[C@@H]1C/C=C/C=C/C(=O)O[C@H]([C@@H](C)[C@@H](O)[C@@H](C)CC[C@@H](OC(=O)[C@H](C)N(C)C)[C@H](C)[C@H](OC(C)=O)[C@H](C)/C=C/N(C)C=O)C/C=C/[C@H](OC)C[C@H](C)C/C=C(\C)[C@@H](OC)CC[C@@H](C)[C@@H](O)[C@@H]1C)N(C)C` (stereo not given in full), for which the midpoint of inhibition in the assay with HeLa S3, the IC50, lay at 0.01 nM. For the same compound, the inhibition entry in the assay filed under Oryctolagus cuniculus [4] was “Active”. Moreover, the result in assay [5] was inactive.
On to `COCC(C(=O)O[C@@H]1C/C=C/C=C/C(=O)O[C@H]([C@@H](C)[C@@H](O)[C@@H](C)CC[C@@H](OC(=O)[C@H](C)N(C)C)[C@H](C)[C@H](OC(C)=O)[C@H](C)CC=NOCC(=O)NCCCC[C@H](NC(=O)CCC(=O)NCCCOCCOCCOCCCNC(=O)c2ccc(C3(C(F)(F)F)N=N3)cc2)C(=O)NCCCOCCOCCOCCCNC(=O)CCCC[C@@H]2SC[C@@H]3NC(=O)N[C@@H]32)C/C=C/[C@H](OC)C[C@H](C)C/C=C(\C)[C@@H](OC)CC[C@@H](C)[C@@H](O)[C@@H]1C)N(C)C` (stereo not given in full), for which half-maximal inhibition with HeLa S3 (IC50) was put at 0.54 nM. Besides, the result (in assay [5]; in the assay filed under Sus scrofa) was Active.
With `COCC(C(=O)O[C@@H]1C/C=C/C=C/C(=O)O[C@H]([C@@H](C)[C@@H](O)[C@@H](C)CC[C@@H](OC(=O)[C@H](C)N(C)C)[C@H](C)[C@H](OC(C)=O)[C@H](C)CC=NOCC(=O)NCCCC[C@H](NC(=O)CCC(=O)NCCCOCCOCCOCCCNC(=O)c2ccc(C3(C(F)(F)F)N=N3)cc2)C(=O)NCCCCCCNC(=O)c2ccc(-c3c4ccc(N(C)C)cc4[o+]c4cc(N(C)C)ccc34)c(C(=O)[O-])c2)C/C=C/[C@H](OC)C[C@H](C)C/C=C(\C)[C@@H](OC)CC[C@@H](C)[C@@H](O)[C@@H]1C)N(C)C` (stereo not given in full), in the assay on HeLa S3, the IC50 stood at 28 nM. In the assay listed under Oryctolagus cuniculus [1], the result was Active. In addition, the outcome in assay [2] was inactive.
